Consider five compounds from patent US8049035B2, “Crystalline potassium salt of lipoxin A4 analogs” (Bayer Pharma AG, priority 2006, dated 2011).

Counter-ions that a name gives are not always drawn.

Common to all, as to assay type: physicochemical
Data set [1] can be described thus: Salt screening assays of the acid (IIa): stability of the salts. From the text: The following describes the salt screening assays in more detail:
Many inorganic cations were investigated to determine their ability to form a stable crystalline salt of the acid (IIa), including potassium, sodium, calcium, aluminium, magnesium, lithium, and zinc.
Several organic amines were investigated, including N-methylglucamine, diethanolamine, ethylenediamine, choline, lysine, and arginine.
In addition to the foregoing, it was investigated to form a mixed salt of the acid of Formula (IIa) with polyvalent inorganic cations and organic acids.
In general, the salt screening assay included the variability of the following different test parameters:
i) Type of cation-compound utilized (e.g., as carbonates, hydroxides, methylates, ethylates).
ii) Type of solvent utilized.
iii) Specific addition or exclusion of water (to assist the formation of hydrates or anhydrates).
iv) Type of crystallization utilized (cooling crystallization, antisolvent crystallization, or evaporation crystallization, and combinations thereof).
v) Type of screening (manual screening as well as high throughput screening).

A short description of data set [2]: Dynamic vapor sorption / hygroscopicity studies (automated water sorption analyzer). Conditions: 25° C.; for relative humidity up to which the form is stable: sorption cycle. How it is done:
The transformation of the monohydrate to the dihydrate form and vice versa occurs quickly and is well defined at 25° C. and at 40° C. This was shown by dynamic vapor sorption investigations. For example, during pre-drying of the monohydrate at 25° C. and 0% relative humidity, 4.0% water is released from the monohydrate. […] Between 20% and 40% relative humidity, one mole of water is absorbed, resulting in the formation of the monohydrate. The monohydrate is stable up to approximately 50% relative humidity and then is transformed into the dihydrate by absorption of a second mole of water between 50% and 60% relative humidity. The dihydrate is the stable form up to 98% relative humidity at 25° C. During the desorption cycle between 40% and 50% relative humidity, the transformation into the monohydrate takes place. The formed monohydrate is existent up to 10% relative humidity. Between 0% and 10% relative humidity the dehydration of the monohydrate to the dehydrated form II occurs. No significant differences between the two cycles were observed.
The hygroscopicity with respect to the transformation of the monohydrate and dihydrate was re-investigated between 45% and 55% relative humidity using smaller steps for the relative humidity. […] At 40° C. the reversible transformation between the monohydrate and the dihydrate is between 57% and 59% relative humidity, approximately 10% higher than at 25° C.
Also, the transformation of the anhydrate form of the potassium salt (Ia) to the hydrate form was shown by dynamic vapor sorption investigations at 25° C. Up to 40% relative humidity the anhydrate was stable. Between 40% and 60% relative humidity approximately two moles of water are absorbed, resulting in the formation of the dihydrate.
Data collection for the hygroscopicity studies was carried out in an automated water sorption analyzer. Approximately 20 mg of the investigated solid state form of the crystalline potassium salt (Ia) was exposed to a continuous flow of nitrogen with predetermined and constant relative humidity. The rate of sweep gas was set at 200 cm^3/min. For a basic assay, two full cycles (sorption/desorption) were measured at 25° C. The measurement was started at 0% relative humidity in order to remove surface water. Once the constant mass was achieved, the next humidity was automatically set. The water sorption/desorption was investigated in steps of 10% between 0% and 90% relative humidity under the criteria for initiation of the first step as set forth herein. Additionally, the sorption at about 98% relative humidity was investigated. Data was acquired using the DVSWin software. […]

Data set [3] in a line: Chemical stability of solid state forms under stress at 40° C./75% rH over 4 weeks (HPLC purity). Conditions: for HPLC-purity: 40° C./75% RH; for chemical stability under stress (in words): 40° C./75% rH. On the procedure: The chemical stability of the anhydrate and the monohydrate of the potassium salt of Formula (Ia) of the invention as well as the dehydrated form I of the potassium salt (Ia) of the invention were assessed by comparing the stability under stress at 40° C./75% rH over a period of 4 weeks.

For `O=C(O)COC[C@H](O)[C@H](O)/C=C/C=C/C#C/C=C/[C@H](O)COc1ccc(F)cc1` [(Ia), potassium 2-((2S,3R,4E,6E,10E,12S)-13-(4-fluorophenoxy)-2,3,12-trihydroxytrideca-4,6,10-trien-6-ynyloxy)acetate], the “stability compared with other salts and the free acid (in words)” value in data set [1] is “substantially more stable than every other salt prepared”.
Regarding `O=C(O)COC[C@H](O)[C@H](O)/C=C/C=C/C#C/C=C/[C@H](O)COc1ccc(F)cc1` [K-salt, Anhydrate, potassium 2-((2S,3R,4E,6E,10E,12S)-13-(4-fluorophenoxy)-2,3,12-trihydroxytrideca-4,6,10-trien-6-ynyloxy)acetate], the “relative humidity up to which the form is stable” value (shortened to “relative humidity up”) in data set [2] is “Up to 40 % relative humidity”. Also, the HPLC-purity was determined as 99.6% in data set [3] (0 weeks (start)), 99.7% in data set [3] (2 weeks) and 99.7% in data set [3] (4 weeks). In addition, in data set [3] (4 weeks), the “chemical stability under stress (in words)” value is recorded as “no sign of degradation”.
Regarding `O=C(O)COC[C@H](O)[C@H](O)/C=C/C=C/C#C/C=C/[C@H](O)COc1ccc(F)cc1` [K-salt, Monohydrate, potassium 2-((2S,3R,4E,6E,10E,12S)-13-(4-fluorophenoxy)-2,3,12-trihydroxytrideca-4,6,10-trien-6-ynyloxy)acetate], in data set [2] (0% relative humidity, gives dehydrated form II), the “water released during pre-drying” value stood at 4.0%. The “relative humidity up” value in data set [2] was “approximately 50 % relative humidity”. For the same compound, the HPLC-purity in data set [3] (0 weeks (start)) was determined as 99.7%; in data set [3] (2 weeks), 99.6%; in data set [3] (4 weeks) it was 99.7%. In addition, in data set [3] (4 weeks), the “chemical stability under stress (in words)” value was “no sign of degradation”.
Take `O=C(O)COC[C@H](O)[C@H](O)/C=C/C=C/C#C/C=C/[C@H](O)COc1ccc(F)cc1` [K-salt, dehydrated form I, potassium 2-((2S,3R,4E,6E,10E,12S)-13-(4-fluorophenoxy)-2,3,12-trihydroxytrideca-4,6,10-trien-6-ynyloxy)acetate]: the HPLC-purity stood at 97.8% in data set [3] (0 weeks (start)), 97.1% in data set [3] (2 weeks) and 95.3% in data set [3] (4 weeks).
Take `O=C(O)COC[C@H](O)[C@H](O)/C=C/C=C/C#C/C=C/[C@H](O)COc1ccc(F)cc1` [dihydrate, potassium 2-((2S,3R,4E,6E,10E,12S)-13-(4-fluorophenoxy)-2,3,12-trihydroxytrideca-4,6,10-trien-6-ynyloxy)acetate]: in data set [2], the “relative humidity up” value is “up to 98 % relative humidity”.
